Results on one compound are retold here after article PMC11600510 (Journal of Chemical Information and Modeling, 2024).

“Also recorded” adds a separate entry of the source.

Data set [1] has as its target T1, Spike RBD/ACE2 (19–615) interaction (Severe acute respiratory syndrome coronavirus 2, UniProt P0DTC2).
T1 construct: S protein RBD (aa residues 319–541) of SARS-CoV-2; expressed in transfected cells; host or cells: HEK293T
Description: cell-based. Type of data set: cell-based, SARS-CoV-2. Particulars: HEK-293T, 48 h, read-out: suppression of Spike RBD/ACE2 (19–615) interaction.

Data set [2] relates to SARS-CoV-2. Briefly: microbe, parasite or virus in culture. Type of data set: cell-based.
Data set [3] relates to SARS-CoV-2. The format is cell-based.
Data set [4] deals with SARS-CoV-2. Type of data set: cell-based. This is another data set of the same source.
In data set [5] the target is T2, CYP2A6 (Homo sapiens, UniProt P11509).
T2 construct: purchased Thermo Fisher Scientific; host or cells: Baculosomes
T2 sequence (P11509 1-494): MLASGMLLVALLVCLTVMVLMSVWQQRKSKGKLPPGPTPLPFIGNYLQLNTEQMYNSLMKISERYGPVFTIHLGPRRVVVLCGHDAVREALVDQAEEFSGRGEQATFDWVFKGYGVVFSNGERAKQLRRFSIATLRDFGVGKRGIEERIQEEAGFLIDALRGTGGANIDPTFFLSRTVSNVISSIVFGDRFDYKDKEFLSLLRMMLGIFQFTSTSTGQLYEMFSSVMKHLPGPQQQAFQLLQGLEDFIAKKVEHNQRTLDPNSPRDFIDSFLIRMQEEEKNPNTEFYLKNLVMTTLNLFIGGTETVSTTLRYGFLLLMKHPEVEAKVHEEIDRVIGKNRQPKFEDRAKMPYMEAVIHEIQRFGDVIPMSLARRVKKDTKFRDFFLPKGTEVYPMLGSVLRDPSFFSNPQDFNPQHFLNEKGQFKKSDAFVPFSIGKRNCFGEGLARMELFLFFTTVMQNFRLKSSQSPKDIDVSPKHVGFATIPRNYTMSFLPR
Briefly: Isozyme-specific CYP450 inhibition. The format is in vitro ADME. The following applies: recombinant human CYP2A6 with CYP450 reductase (Baculosomes), probe fluorescent substrate (not named). As to the method: (§1) For this, the activity of CYP1A2, CYP2A6, CYP2B6, CYP2C9, CYP2C19, CYP2D6, and CYP3A4 was assessed after the administration of CKP-25 at 1 μM to determine (a) the oxidative (CYP-mediated) metabolic stability profile in question and (b) the enzyme metabolizing isoforms responsible (the test system consists of recombinant human CYP450 and CYP450 reductase; cytochrome b5 may also be present). Herein, no concentration-dependent effects were reported. […] No product inhibition or mechanism-based inactivation of the CYP450 isoenzymes in question was obtained. Test-compounds with poor solubility can show artificially low CYP450 inhibition and thus, chemical entities with potential drug–drug interaction toxicities may be overlooked.
(§2) Human cytochrome P450 (CYP450) isoenzymes were expressed in Baculosomes obtained from Thermo Fisher Scientific (Waltham, MA, USA). Reagents were handled and prepared following the manufacturer’s guidelines. Compound CKP-25 was evaluated at a concentration of 1 μM according to our established standard operating procedures and protocols as described previously.[127],[128] The enzymatic activity of various CYP450 isoforms (CYP1A2, CYP2A6, CYP2B6, CYP2C9, CYP2C19, CYP2D6, and CYP3A4) was measured, considering the kinetic model for each isoform. The reactions were conducted in triplicate at 20 °C. NADP+ (10 mM in 100 mM potassium phosphate, pH 8.0) was converted to NADPH using a regeneration system containing glucose-6-phosphate (333 mM) and glucose-6-phosphate dehydrogenase (30 U/mL in 100 mM potassium phosphate, pH 8.0). Upon the addition of the fluorescent substrate, signal monitoring was performed immediately (within 2 min) using appropriate excitation and emission wavelengths, recorded by an Agilent BioTek Lionheart FX (Winooski, VT, USA). CYP450 inhibition (%) was calculated based on the reaction rates (fluorescence intensity changes per unit time). In total, n = 60 meaurements per minute were recorded over a 60 min period. [drawing 2] where X, the rate observed in the presence of a test-compound; A, the rate observed in the presence of negative (solvent, DMSO) control.

In data set [6] the target is T3, CYP2B6 (Homo sapiens, UniProt P20813).
T3 construct: purchased Thermo Fisher Scientific; host or cells: Baculosomes
T3 sequence (P20813 1-491): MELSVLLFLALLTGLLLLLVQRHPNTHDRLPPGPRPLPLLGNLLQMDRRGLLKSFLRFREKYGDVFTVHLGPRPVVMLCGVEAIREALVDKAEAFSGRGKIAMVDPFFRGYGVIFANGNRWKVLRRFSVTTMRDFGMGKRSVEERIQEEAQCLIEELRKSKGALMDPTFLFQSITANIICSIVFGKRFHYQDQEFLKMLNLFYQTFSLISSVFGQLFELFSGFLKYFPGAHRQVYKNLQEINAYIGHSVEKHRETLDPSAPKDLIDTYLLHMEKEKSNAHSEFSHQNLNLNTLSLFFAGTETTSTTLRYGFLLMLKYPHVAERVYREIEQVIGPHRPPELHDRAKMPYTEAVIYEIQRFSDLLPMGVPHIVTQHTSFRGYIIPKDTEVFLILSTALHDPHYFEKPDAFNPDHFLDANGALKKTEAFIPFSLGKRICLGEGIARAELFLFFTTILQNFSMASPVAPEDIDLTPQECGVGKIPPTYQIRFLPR
Description: Isozyme-specific CYP450 inhibition. The format is in vitro ADME. Particulars: recombinant human CYP2B6 with CYP450 reductase (Baculosomes), probe fluorescent substrate (not named). As to the method: as §1, §2

In data set [7] the target is T4, CYP2D6 (Homo sapiens, UniProt P10635).
T4 construct: purchased Thermo Fisher Scientific; host or cells: Baculosomes
T4 sequence (P10635 whole entry): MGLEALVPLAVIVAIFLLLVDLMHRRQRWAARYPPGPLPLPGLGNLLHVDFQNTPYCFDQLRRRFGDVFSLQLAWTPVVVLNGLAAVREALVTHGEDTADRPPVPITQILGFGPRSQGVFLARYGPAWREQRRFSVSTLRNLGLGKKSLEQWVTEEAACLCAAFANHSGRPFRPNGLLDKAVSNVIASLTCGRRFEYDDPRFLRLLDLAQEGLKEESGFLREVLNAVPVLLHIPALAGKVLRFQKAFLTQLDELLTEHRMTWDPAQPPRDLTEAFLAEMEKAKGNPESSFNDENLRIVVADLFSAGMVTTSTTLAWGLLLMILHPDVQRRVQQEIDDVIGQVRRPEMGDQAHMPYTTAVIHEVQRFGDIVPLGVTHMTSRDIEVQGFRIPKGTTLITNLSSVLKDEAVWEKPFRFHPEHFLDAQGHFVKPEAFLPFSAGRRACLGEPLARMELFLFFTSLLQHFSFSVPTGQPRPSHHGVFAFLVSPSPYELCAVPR
Description: Isozyme-specific CYP450 inhibition. Type of data set: in vitro ADME. The following applies: recombinant human CYP2D6 with CYP450 reductase (Baculosomes), probe fluorescent substrate (not named). How it is done:
as §1, §2

Data set [8] has as its system CYP450 system. Briefly: Isozyme-specific CYP450 study, overall statement. Type of data set: in vitro ADME, human. Particulars: 1 μM. How it is done: For this, the activity of CYP1A2, CYP2A6, CYP2B6, CYP2C9, CYP2C19, CYP2D6, and CYP3A4 was assessed after the administration of CKP-25 at 1 μM to determine (a) the oxidative (CYP-mediated) metabolic stability profile in question and (b) the enzyme metabolizing isoforms responsible (the test system consists of recombinant human CYP450 and CYP450 reductase; cytochrome b5 may also be present). Herein, no concentration-dependent effects were reported. […] No product inhibition or mechanism-based inactivation of the CYP450 isoenzymes in question was obtained. […]
Human cytochrome P450 (CYP450) isoenzymes were expressed in Baculosomes obtained from Thermo Fisher Scientific (Waltham, MA, USA). […] Compound CKP-25 was evaluated at a concentration of 1 μM according to our established standard operating procedures and protocols as described previously.[127],[128] The enzymatic activity of various CYP450 isoforms (CYP1A2, CYP2A6, CYP2B6, CYP2C9, CYP2C19, CYP2D6, and CYP3A4) was measured, considering the kinetic model for each isoform. […] Upon the addition of the fluorescent substrate, signal monitoring was performed immediately (within 2 min) using appropriate excitation and emission wavelengths, recorded by an Agilent BioTek Lionheart FX (Winooski, VT, USA). CYP450 inhibition (%) was calculated based on the reaction rates (fluorescence intensity changes per unit time). […]

The subject of data set [9] is E. coli WP2 uvrA strain. Briefly: Microbial mutagenicity assay (Ames test). In general terms: The Ames test detects mutagens through reverse mutation in bacteria.

Turning to `COc1cccc2c1ncn2Cc1ccc2ccccc2c1` [CKP-25, 4-Methoxy-1-(naphthalen-2-ylmethyl)-1H-benzo[d]imidazole], the inhibition at 25 µM in data set [1] is 34%. Besides, the “effect on the cytopathic effect of SARS-CoV-2 (in words)” value in [2] is listed as “consistently reduced the cytopathic effect”. In addition, the IC50 (commonly the midpoint of a concentration-inhibition curve) in data set [2] (Severe acute respiratory syndrome coronavirus 2, Vero C1008, 48 h, read-out: IC50, SARS-CoV-2 CPE) came out at 3.5 µM. Besides, in data set [3], the “effect on viral load in the cell culture supernatant (in words)” value is on record as “reduced the viral load”. The “reduction of the viral titter (TCID50)” value in data set [4] is recorded as “approximately 90%”. Besides, the inhibition at 60 min, 1 µM is 6% in data set [5], 0% in data set [6] and 1% in data set [7]. Besides, the “inhibition of the CYP450 system (in words)” value in [8] is on record as “weak inhibitor”. In addition, the “solubility issues in the CYP450 assay” value in data set [8] was “No solubility issues”. Moreover, the mean revertants in data set [9] (2.5 μg/plate, +S9) was 13; in data set [9] (2.5 μg/plate, –S9), 7.5; in data set [9] (25 μg/plate, +S9), 19; in data set [9] (25 μg/plate, –S9) it was 12.5; in data set [9] (50 μg/plate, +S9), 15; in [9] (50 μg/plate, –S9) it was 13. Besides, the mean revertants in data set [9] (100 μg/plate, +S9) came out at 13; in data set [9] (100 μg/plate, –S9), 11.5; in data set [9] (200 μg/plate, +S9), 16; in [9] (200 μg/plate, –S9), 5.5. For the same compound, in [9] (12.5 to 200 μg/plate, with and without S9-mix), the “mutagenic activity (in words)” value is “does not elicit mutagenic effect; also recorded: does not exhibit mutagenic activity”.
